# Measured values taken from PMC10228259 (Nature, 2023).
# Read-outs that look alike come from different tables or passages of the source.
# T1: chemotactile receptor for terpenes 1 (CRT1, previously CR518) (Octopus bimaculoides, UniProt A0A0L8FVQ9)
# T1 sequence (A0A0L8FVQ9 21-399): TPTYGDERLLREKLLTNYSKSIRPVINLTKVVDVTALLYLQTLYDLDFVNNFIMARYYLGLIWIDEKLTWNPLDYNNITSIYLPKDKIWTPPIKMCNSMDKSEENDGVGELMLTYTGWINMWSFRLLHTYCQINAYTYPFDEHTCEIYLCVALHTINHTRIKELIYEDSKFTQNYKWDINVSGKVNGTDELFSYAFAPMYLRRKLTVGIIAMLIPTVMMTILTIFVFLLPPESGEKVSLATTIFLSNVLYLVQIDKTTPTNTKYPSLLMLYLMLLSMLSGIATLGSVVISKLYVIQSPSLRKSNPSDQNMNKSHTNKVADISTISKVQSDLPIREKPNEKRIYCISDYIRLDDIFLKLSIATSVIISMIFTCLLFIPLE
# T2: chemotactile receptor for terpenes 1 (CRT1) (Octopus bimaculoides, UniProt A0A0L8FVQ9)
# T2 sequence (A0A0L8FVQ9 21-399): T1 sequence (A0A0L8FVQ9 21-399)
# B1: chemotactile receptor for terpenes 1 (CRT1) (receptor, Octopus bimaculoides, UniProt A0A0L8FVQ9 21-399, looked up)
# chain: T1 sequence (A0A0L8FVQ9 21-399)
# modifications: N-linked glycans
# Key:
# [1] = target: T1, chemotactile receptor for terpenes 1 (CRT1, previously CR518); assay: cryo-EM structure at […] Å; format: cell-based
# [2] = target: T2, chemotactile receptor for terpenes 1 (CRT1); assay: patch clamp dose-response in HEK […] cells expressing CRT1; format: cell-based
# [3] = target: T2, chemotactile receptor for terpenes 1 (CRT1); assay: as above; format: cell-based; remark: listed apart in the source
# [4] = target: the molecule itself; assay: cryo-EM structure
molecule,measurement,setting,value
"C[C@@H]1CC[C@@]2(OC1)O[C@H]1C[C@H]3[C@@H]4CC=C5C[C@@H](OCCC(CO[C@@H]6O[C@H](CO)[C@@H](O[C@H]7O[C@H](CO)[C@@H](O)[C@H](O)[C@H]7O)[C@H](O)[C@H]6O)CO[C@@H]6O[C@H](CO)[C@@H](O[C@H]7O[C@H](CO)[C@@H](O)[C@H](O)[C@H]7O)[C@H](O)[C@H]6O)CC[C@]5(C)[C@H]4CC[C@]3(C)[C@H]1[C@@H]2C [GDN, glyco-diosgenin]",EC50,[1],0.125 µM
C=C(C)[C@@H]1CCC2=CC(=O)C[C@@H](C)[C@]2(C)C1 [nootkatone],EC50,[2],16.1 µM
C[C@H]1CCCC(=O)CCC/C=C/c2cc(O)cc(O)c2C(=O)O1 [zearalenone],EC50,[3],4.8 µM
B1,stoichiometry N,[4],5
